{"source": "patent US20120238915A1", "about": "“SOUND WAVE TREATMENT PLATFORM AND SOUND WAVE TREATMENT METHOD” (priority 2011, published 2012)", "key": {"[1]": {"tested_on": "non-operable pancreatic cancer"}, "[2]": {"tested_on": "metastatic pancreatic cancer to liver", "assay": "Example 4: patient treated with non-focused sound waves with Bleomycin", "type": "in vivo, human", "details": "30 mg Bleomycin + sound waves 0.3 MHz", "experimental": "person three was diagnosed with metastatic pancreatic cancer to liver and has been treated with Palliative bypass operation. No chemotherapy history. They were in very terminal stage with severe jaundice and great pain. They used Fetanyl patch and additional pain medication. The patient was treated according to the present invention with 30 mg Bleomycin (Frequency: 0.3 MHz; power intensity: less than 2 W/cm^2; duration: less than 30 minutes). […] They remained pain free for 4 days till their death due to hepatic failure."}, "[3]": {"tested_on": "recurrent breast cancer and metastasis to the liver", "assay": "Example 9: patient treated with non-focused sound waves with Bleomycin", "type": "in vivo, human", "experimental": "person two was diagnosed with recurrent breast cancer and metastasis to the liver. They had multiple chemotherapy and target medicine treatment.\nThe patient was treated twice (one week apart) according to the present invention with 30 mg Bleomycin each time (Frequency: 0.3 MHz; power intensity: less than 2 W/cm^2; duration: less than 30 minutes (each time)). […] Their right upper quadrant pain resolved and remained pain free over 18 months till last follow up."}, "[4]": {"tested_on": "terminal metastatic ovarian cancer", "assay": "Example 10: patient treated with non-focused sound waves with Bleomycin", "type": "in vivo, human", "experimental": "person five was diagnosed with terminal metastatic ovarian cancer with colostomy and complained of abdominal pain.\nThe patient was treated twice (one week apart) according to the present invention combined with 30 mg Bleomycin each time (Frequency: 0.3 MHz; power intensity: less than 2 W/cm^2; duration: less than 30 minutes (each time)). […] They remained pain free for over 8 months till their death due to sepsis."}, "[5]": {"tested_on": "metastatic pancreatic cancer to liver", "assay": "Example 3: patient treated with non-focused sound waves with Bleomycin", "details": "30 mg Bleomycin + sound waves 0.3 MHz"}, "terminal hepatoma": {"tested_on": "terminal hepatoma", "assay": "Example 8: patient treated with non-focused sound waves with Bleomycin", "type": "in vivo, human", "details": "30 mg Bleomycin + sound waves 0.3 MHz", "experimental": "person four was diagnosed with terminal hepatoma and liver pain.\n(§1) The patient was treated according to the present invention with 30 mg Bleomycin (Frequency: 0.3 MHz; power intensity: less than 2 W/cm^2; duration: less than 30 minutes)."}, "[6]": {"tested_on": "metastatic oral cancer to the face", "assay": "Example 7: patient treated with non-focused sound waves with Bleomycin", "type": "in vivo, human", "details": "30 mg Bleomycin + sound waves 0.3 MHz", "experimental": "person six was diagnosed with metastatic oral cancer to the face, and complained of severe facial pain. They have been treated with multiple surgery and chemoradiation. They presented with a large area of metastatic facial mass, and their right eye was bulging due to tumor infiltration.\nas §1"}, "[7]": {"tested_on": "metastatic pancreatic cancer to liver", "assay": "Example 1: patient treated with non-focused sound waves with Bleomycin", "type": "in vivo, human", "details": "30 mg Bleomycin + sound waves 0.3 MHz", "experimental": "person one was diagnosed with metastatic pancreatic cancer to liver. Treatment history was as follows: Gemcitabine, Tykerb, Xeloda, and 6000R radiation therapy. Despite multiple treatments, patient's condition continues to worsen with increased abdominal pain. The patient was taking pain medication with constipation.\nThe patient was treated according to the present invention with 30 mg Bleomycin (Frequency: 0.3 MHz; power intensity: less than 2 W/cm^2; duration: less than 30 minutes). […] Their tumor marker CA19-9 decreased from 1465 to 406 in 9 days after the treatment. They remained pain free for 150 days after the treatment till their death clue to organ failure."}, "[8]": {"tested_on": "recurrent pancreatic cancer", "details": "human, in vivo"}, "metastatic breast cancer": {"tested_on": "metastatic breast cancer", "assay": "Example 6: patient treated with non-focused sound waves with Bleomycin", "type": "in vivo, human", "details": "30 mg Bleomycin + sound waves 0.3 MHz", "experimental": "person two was diagnosed with metastatic breast cancer, and complained of three weeks left shoulder pain.\nas §1"}, "[9]": {"details": "person two, 30 mg Bleomycin + sound waves 0.3 MHz"}}}
{"compound": "Nc1ccn([C@@H]2O[C@H](CO)[C@@H](O)C2(F)F)c(=O)n1", "note": "[Gemcitabine]", "values": [{"measurement": "tumor growth in diameter", "setting": "[1]; during at least four months of weekly Gemcitabine, after Bleomycin + sound wave treatments", "result": 1.4, "unit": "cm"}]}
{"compound": "Bleomycin", "values": [{"measurement": "pain medication use after treatment", "setting": "[2]", "result": "without using anymore pain medication"}, {"measurement": "side effect", "setting": "[2]; person three", "result": "no side effect was observed"}, {"measurement": "time in which pain vanished", "setting": "[2]; person three, one treatment", "result": 6, "unit": "h"}, {"measurement": "pain", "setting": "[2]; person three, one treatment, <2 W/cm^2, <30 min", "result": "totally vanished"}, {"measurement": "remained pain free", "setting": "[2]; till death due to hepatic failure", "result": 4, "unit": "days"}, {"measurement": "right upper quadrant pain", "setting": "[3]; 30 mg Bleomycin twice + sound waves 0.3 MHz", "result": "resolved"}, {"measurement": "liver tumor diameter (imaging study), second tumor", "setting": "[3]; decreased from 7 cm, after the first treatment", "result": 4, "unit": "cm"}, {"measurement": "liver tumor diameter (imaging study), first tumor", "setting": "[3]; decreased from 10 cm, after the first treatment", "result": 7, "unit": "cm"}, {"measurement": "side effect", "setting": "[3]; [9]", "result": "no side effect"}, {"measurement": "liver tumors size", "setting": "[3]; person two, after the first of two treatments one week apart, 30 mg Bleomycin each + sound waves 0.3 MHz, <2 W/cm^2, <30 min", "result": "significantly decreased in size"}, {"measurement": "follow up imaging studies", "setting": "[3]; several follow up imaging studies, 30 mg Bleomycin twice + sound waves", "result": "stable liver metastasis"}, {"measurement": "remained pain free", "setting": "[3]; till last follow up, 30 mg Bleomycin twice + sound waves", "result": "over 18 months"}, {"measurement": "side effect", "setting": "[4]; person five, 30 mg Bleomycin + sound waves 0.3 MHz", "result": "no side effect"}, {"measurement": "abdominal pain", "setting": "[4]; person five, after the first of two treatments one week apart, 30 mg Bleomycin each + sound waves 0.3 MHz, <2 W/cm^2, <30 min", "result": "resolved"}, {"measurement": "remained pain free", "setting": "[4]; till death due to sepsis, 30 mg Bleomycin twice + sound waves", "result": "over 8 months"}, {"measurement": "pain free", "setting": "[5]", "result": 32, "unit": "days"}, {"measurement": "side effect", "setting": "[5]; person seven", "result": "no side effect was observed"}, {"measurement": "patient's pain", "setting": "[5]; person seven, one treatment, <2 W/cm^2, <30 min", "result": "totally dissolved"}, {"measurement": "pain medication use after treatment", "setting": "[5]; until death due to sepsis", "result": "without using any pain medication"}, {"measurement": "jaundice", "setting": "[1]; after Bleomycin + sound wave treatments and weekly Gemcitabine", "result": "did not have jaundice"}, {"measurement": "blood sugar", "setting": "[1]; insulin dependent diabetic patient, after the treatment, remained till death", "result": "returned to normal level without using insulin"}, {"measurement": "side effect", "setting": "[1]; [9]", "result": "no side effect was observed"}, {"measurement": "pancreatic region pain", "setting": "[1]; person two, after the first treatment, 30 mg Bleomycin + sound waves 0.3 MHz, <2 W/cm^2, <30 min", "result": "resolved"}, {"measurement": "remained pain free after the treatment", "setting": "[1]; till death, 30 mg Bleomycin three times (third followed by 1000 mg Gemcitabine) + sound waves", "result": 183, "unit": "days"}, {"measurement": "pain free till death", "setting": "terminal hepatoma", "result": 14, "unit": "days"}, {"measurement": "side effect", "setting": "terminal hepatoma; person four", "result": "no side effect"}, {"measurement": "right quadrant pain", "setting": "terminal hepatoma; person four, one treatment, <2 W/cm^2, <30 min", "result": "vanished"}, {"measurement": "facial tumor size", "setting": "[6]", "result": "decreased in size"}, {"measurement": "right eye (bulging due to tumor infiltration)", "setting": "[6]", "result": "less bulging and could rotate"}, {"measurement": "side effect", "setting": "[6]; person six", "result": "no side effect"}, {"measurement": "facial pain", "setting": "[6]; person six, one treatment, <2 W/cm^2, <30 min", "result": "totally resolved"}, {"measurement": "remained pain free", "setting": "[6]; till last follow up", "result": "over 33 days"}, {"measurement": "tumor marker CA19-9", "setting": "[7]; decreased from 1465, in 9 days after the treatment", "result": 406}, {"measurement": "constipation symptom", "setting": "[7]; person one, after the treatment", "result": "relieved"}, {"measurement": "pain medication use after treatment", "setting": "[7]; person one, one treatment", "result": "has not taken any pain medication since the treatment"}, {"measurement": "side effect", "setting": "[7]; person one, one treatment", "result": "no side effect was observed"}, {"measurement": "patient's pain", "setting": "[7]; person one, one treatment, <2 W/cm^2, <30 min", "result": "dissolved"}, {"measurement": "remained pain free after the treatment", "setting": "[7]; till death due to organ failure", "result": 150, "unit": "days"}, {"measurement": "body weight", "setting": "[8]", "result": "increased"}, {"measurement": "pain medication use after treatment", "setting": "[8]", "result": "has not taken any pain medication since the first treatment till their death"}, {"measurement": "pain scale", "setting": "[8]", "result": "0-1"}, {"measurement": "physical activity", "setting": "[8]", "result": "returned to near normal"}, {"measurement": "remained pain free after the treatment", "setting": "[8]", "result": 170, "unit": "days"}, {"measurement": "side effect", "setting": "[8]", "result": "no side effect was observed"}, {"measurement": "survival after first diagnosis", "setting": "[8]", "result": "lived two years after their first diagnosis"}, {"measurement": "pain free duration", "setting": "metastatic breast cancer", "result": "over seven months"}, {"measurement": "side effect", "setting": "metastatic breast cancer; person two, one treatment, <2 W/cm^2, <30 min", "result": "no side effect was observed"}, {"measurement": "shoulder pain", "setting": "metastatic breast cancer; till death due to brain metastasis", "result": "did not have shoulder pain"}]}
